Data taken from patent US9096608B2, “Pharmaceutically active pyrazolo-triazine derivatives” (LEAD DISCOVERY CENTER GMBH, priority 2012, dated 2015).
Where two headings read alike, the source gives them in different places.

Tests used:
Type in all cases: biochemical
[1] = biological target: T1, CDK7/CycH/Mat1 (Homo sapiens, UniProt P50613); assay: CDK7 Enzymatic Activity Assay (Lance Kinase Activity Assay, FRET)
T1 construct: purchased Carna
Experimental: (§1) This protocol describes how the Lance Kinase Activity Assay was performed to determine IC50 values of compounds of general formula (I) against CDK/Cyclin complexes. The principle behind this enzymatic assay is based upon the phosphorylation of the Ulight-Peptide Substrat. It is detected by using a specific EU-labeled anti-phospho peptide antibody.
(§2) Binding of an inhibitor to the kinase prevents phosphorylation of the ULlight-MBP Substrat, resulting in a loss of FRET.
CDK7 Enzymatic Activity Assay
(§3) The compounds of general formula (I) exemplary summarized in Table 1 were diluted from a 10 mM DMSO stock solution 1:10 in a total volume of 15 μl DMSO. This compound predilution was then serial diluted 1:3 over 8 steps in DMSO and briefly spun down. Each compound solution was now diluted 1:20 in Enzymatic Buffer (HEPES: 50 mM, pH: 7.5; MgCl2: 10 mM; EGTA: 1 mM; DTT: 2 mM; Tween-20: 0.01%), mixed thoroughly and spun down.
(§4) For positive controls, 2 μl of DMSO working solution were mixed with 6 μl CDK7/CycH/Mat1/substrate working solution and 2 μl ATP working solution. Positive and negative controls were calculated from at least 8 different wells. The 384 well plates were mixed in a Teleshaker plate mixer (Beckman Coulter, Brea, Calif., USA) at 2000 rpm for 40 sec, and incubated for 1 h at room temperature before addition of 10 μl LANCE Detection Buffer (1×; EDTA: 20 nM; Eu-Anti-P-MBP: 4 nM) per well. Plates were mixed in a Teleshaker plate mixer (Beckman Coulter, Brea, Calif., USA) at 2000 rpm for 40 sec, followed by incubation with Detection Buffer for 1 h, and reading. […] IC50 values were determined from the sigmoidal dose response curves with the software Quattro Workflow (Quattro GmbH, Munich, Germany).

[2] = biological target: T2, CDK2/CycA (Homo sapiens, UniProt P24941); assay: CDK2 Enzymatic Activity Assay (Lance Kinase Activity Assay, FRET); conditions: for CDK2 IC50 range class: Table 5B, symbols per IC50 ranges of b615
T2 construct: purchased Proqinase
Experimental: as §1, §2
CDK2 Enzymatic Activity Assay
as §3
as §4, with “6 μl CDK2/CycA/substrate working solution” for “6 μl CDK7/CycH/Mat1/substrate working solution”, “Detection Buffer (EDTA: […];” for “Detection Buffer (1×; EDTA: 20 nM;”, “rpm for […], followed” for “rpm for 40 sec, followed”

[3] = biological target: T3, CDK9/Cyclin T1 (Homo sapiens, UniProt P50750); assay: CDK9 Enzymatic Activity Assay (Lance Kinase Activity Assay, FRET); conditions: for CDK9: Selectivity of CDK7 inhibition over CDK9 inhibition [fold]: Table 5B, symbols per IC50 ranges of b615
T3 construct: purchased Invitrogen
Experimental: as §1, §2
CDK9 Enzymatic Activity Assay
as §3
as §4, with “6 μl CDK9/cyclin T1/substrate working solution” for “6 μl CDK7/CycH/Mat1/substrate working solution”, “rpm for […], followed” for “rpm for 40 sec, followed”

[4] = Table 5A, 25 μM ATP final, read-out: CDK7: IC50 [mM] for CDK7 inhibition (the above defined ranges apply)

T3 sequence (P50750 whole entry): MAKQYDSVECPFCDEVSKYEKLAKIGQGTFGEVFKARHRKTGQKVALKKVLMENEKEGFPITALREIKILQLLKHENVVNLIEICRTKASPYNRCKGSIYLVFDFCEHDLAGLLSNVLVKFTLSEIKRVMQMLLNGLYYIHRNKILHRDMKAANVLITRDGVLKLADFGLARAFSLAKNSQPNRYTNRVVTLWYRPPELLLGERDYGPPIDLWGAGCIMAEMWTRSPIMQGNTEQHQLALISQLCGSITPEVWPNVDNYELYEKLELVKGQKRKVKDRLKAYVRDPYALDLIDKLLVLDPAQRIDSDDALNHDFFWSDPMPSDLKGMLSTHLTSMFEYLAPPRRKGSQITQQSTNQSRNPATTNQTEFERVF
T3 sequence (O60563 whole entry partner): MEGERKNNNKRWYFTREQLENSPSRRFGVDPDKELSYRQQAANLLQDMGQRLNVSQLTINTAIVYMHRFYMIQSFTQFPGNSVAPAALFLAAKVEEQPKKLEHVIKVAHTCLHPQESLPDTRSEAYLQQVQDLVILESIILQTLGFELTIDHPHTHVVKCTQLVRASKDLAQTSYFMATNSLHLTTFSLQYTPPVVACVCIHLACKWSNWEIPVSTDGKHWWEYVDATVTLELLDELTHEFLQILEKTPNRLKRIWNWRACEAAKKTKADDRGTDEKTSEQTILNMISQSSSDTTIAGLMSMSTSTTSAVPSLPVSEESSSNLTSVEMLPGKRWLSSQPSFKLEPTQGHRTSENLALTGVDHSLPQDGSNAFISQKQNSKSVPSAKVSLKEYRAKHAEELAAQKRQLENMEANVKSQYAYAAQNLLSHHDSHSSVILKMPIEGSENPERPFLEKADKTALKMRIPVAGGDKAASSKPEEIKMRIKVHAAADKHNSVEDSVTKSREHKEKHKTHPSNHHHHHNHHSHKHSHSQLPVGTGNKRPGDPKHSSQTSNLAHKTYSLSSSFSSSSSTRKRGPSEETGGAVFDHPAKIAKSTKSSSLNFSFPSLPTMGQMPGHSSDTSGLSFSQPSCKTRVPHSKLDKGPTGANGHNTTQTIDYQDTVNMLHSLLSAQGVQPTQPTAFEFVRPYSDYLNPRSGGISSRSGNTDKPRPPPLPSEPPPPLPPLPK
T1 sequence (P50613 whole entry): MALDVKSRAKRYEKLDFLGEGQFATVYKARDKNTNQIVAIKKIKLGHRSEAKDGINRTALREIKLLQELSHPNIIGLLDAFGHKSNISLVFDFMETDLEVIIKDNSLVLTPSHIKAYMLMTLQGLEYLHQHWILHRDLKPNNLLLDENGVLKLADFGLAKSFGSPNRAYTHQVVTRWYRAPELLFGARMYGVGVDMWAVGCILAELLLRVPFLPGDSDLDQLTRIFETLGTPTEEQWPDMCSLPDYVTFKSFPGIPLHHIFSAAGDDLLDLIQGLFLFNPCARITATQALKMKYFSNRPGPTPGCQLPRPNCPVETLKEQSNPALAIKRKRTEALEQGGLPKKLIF
T1 sequence (P51946 whole entry partner): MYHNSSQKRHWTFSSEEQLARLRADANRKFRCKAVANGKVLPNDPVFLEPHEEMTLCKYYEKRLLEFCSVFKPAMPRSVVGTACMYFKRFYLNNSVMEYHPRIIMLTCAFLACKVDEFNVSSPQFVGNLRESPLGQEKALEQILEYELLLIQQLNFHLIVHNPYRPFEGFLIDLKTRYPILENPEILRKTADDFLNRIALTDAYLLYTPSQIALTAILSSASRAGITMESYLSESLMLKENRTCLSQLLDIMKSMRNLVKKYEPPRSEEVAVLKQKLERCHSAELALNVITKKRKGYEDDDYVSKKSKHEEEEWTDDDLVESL
T1 sequence (P51948 whole entry partner): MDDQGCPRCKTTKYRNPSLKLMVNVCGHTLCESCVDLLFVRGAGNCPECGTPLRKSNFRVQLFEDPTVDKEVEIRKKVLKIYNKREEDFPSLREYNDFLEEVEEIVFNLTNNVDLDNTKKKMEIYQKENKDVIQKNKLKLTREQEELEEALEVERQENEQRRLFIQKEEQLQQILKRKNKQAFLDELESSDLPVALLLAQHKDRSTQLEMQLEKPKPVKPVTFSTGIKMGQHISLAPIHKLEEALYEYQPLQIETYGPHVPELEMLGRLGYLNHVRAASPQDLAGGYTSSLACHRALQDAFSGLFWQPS

Row | SMILES | IC50 [1, 4] | CDK2 IC50 range class [2] | CDK9: Selectivity of CDK7 inhibition over CDK9 inhibition [fold] [3] | further results
1 | CCOc1cccc([C@H](C)Nc2nc(O[C@@H]3CCCNC3)nc3c(C(C)C)cnn23)c1 [(VII-aV), N-((S)-1-(3-ethoxyphenyl)ethyl)-8-isopropyl-2-((R)-piperidin-3-yloxy)pyrazolo[1.5-a][1,3,5]triazin-4-amine] | > 100 nM | +++ (IC50>2500 nM) | +++ (IC50>2500 nM) | –
2 | COc1ccc([C@H](C)Nc2nc(OC3CCN(C)CC3)nc3c(C(C)C)cnn23)cc1 [(VII-aa), (S)-8-isopropyl-N-(1-(4-methoxyphenyl)ethyl)-2-((1-methylpiperidin-4-yl)oxy)pyrazolo[1,5-a][1,3,5]triazin-4-amine] | > 100 nM | +++ (IC50>2500 nM) | +++ (IC50>2500 nM) | –
3 | CC(C)c1cnn2c(N[C@H](C)c3cccc(Cl)c3)nc(OC3CCN(C)CC3)nc12 [(VII-ad), (R)-N-(1-(3-chlorophenyl)ethyl)-8-isopropyl-2-((1-methylpiperidin-4-yl)oxy)pyrazolo[1,5-a][1,3,5]triazin-4-amine] | < 10 nM | – | +++ (IC50>2500 nM) | IC50 ([1]; Table 7, lower part, read-out: IC50 [nM] CDK7): < 10 nM; IC50 ([1]; Table 7, upper part, read-out: IC50 [nM] CDK7): < 10 nM; Selectivity CDK7 over CDK2 [fold] ([2]; Table 7, lower part): 968 fold; IC50 ([2]; Table 7, upper part): > 2500 nM; Selectivity CDK7 over CDK9 [fold] ([3]; Table 7, lower part): 815 fold; IC50 ([3]; Table 7, upper part): > 2500 nM
4 | CC(C)c1cnn2c(NC(C)c3ccccc3N3CCCC3)nc(O[C@@H]3CCCNC3)nc12 (stereo partly drawn) [(VII-ap), 8-isopropyl-2-((R)-piperidin-3-yloxy)-N-(1-(2-(pyrrolidin-1-yl)phenyl)ethyl)pyrazolo[1,5-a][1,3,5]triazin-4-amine] | > 100 nM | +++ (IC50>2500 nM) | +++ (IC50>2500 nM) | –
5 | CC(C)c1cnn2c(NC(C)c3ccccc3N3CCCCC3)nc(O[C@@H]3CCCNC3)nc12 (stereo partly drawn) [(VII-aq), 8-isopropyl-N-(1-(2-(piperidin-1-yl)phenyl)ethyl)-2-((R)-piperidin-3-yloxy)pyrazolo[1,5-a][1,3,5]triazin-4-amine] | > 100 nM | +++ (IC50>2500 nM) | +++ (IC50>2500 nM) | –
6 | CC(C)c1cnn2c(N[C@H](c3ccccc3)C3CC3)nc(O[C@@H]3CCCNC3)nc12 [(VII-s), N-((S)-cyclopropyl(phenyl)methyl)-8-isopropyl-2-((R)-piperidin-3-yloxy)pyrazolo[1,5-a][1,3,5]triazin-4-amine] | 10 to 30 nM | +++ (IC50>2500 nM) | – | –
7 | CC(C)c1cnn2c(N[C@@H](C)c3ccc(Cl)cc3)nc(OC3CCN(C)CC3)nc12 [(VII-y), (S)-N-(1-(4-chlorophenyl)ethyl)-8-isopropyl-2-((1-methylpiperidin-4-yl)oxy)pyrazolo[1,5-a][1,3,5]triazin-4-amine] | > 100 nM | – | +++ (IC50>2500 nM) | –
8 | CC(C)c1cnn2c(N[C@@H](C)c3ccccc3)nc(NC3CCNCC3)nc12 [(VIII-d), (S)-8-isopropyl-N4-(1-phenylethyl)-N2-(piperidin-4-yl)pyrazolo[1,5-a][1,3,5]triazine-2,4-diamine] | 10 to 30 nM | +++ (IC50>2500 nM) | – | –
9 | COc1ccccc1[C@H](C)Nc1nc(N[C@@H]2CCCNC2)nc2c(C(C)C)cnn12 [(VIII-g), 8-isopropyl-N4-((S)-1-(2-methoxyphenyl)ethyl)-N2-((R)-piperidin-3-yl)pyrazolo[1,5-a][1,3,5]triazine-2,4-diamine] | < 10 nM | – | +++ (IC50>2500 nM) | –
10 | COc1cccc(CNc2nc(OC3CCN(C)CC3)nc3c(C(C)C)cnn23)c1 [C-II, reference compound] | – | – | – | IC50 ([1]; Table 6, read-out: IC50 [nM] CDK7): < 10 nM; Selectivity CDK7 over CDK9 [fold] ([3]; Table 6, CDK9 activity as multiple of CDK7 activity): 9 fold

Further lines, with some results ahead:

Row | IC50 [1, 4] | CDK2 IC50 range class [2] | CDK9: Selectivity of CDK7 inhibition over CDK9 inhibition [fold] [3] | SMILES | further results
11 | < 10 nM | +++ (IC50>2500 nM) | +++ (IC50>2500 nM) | COc1cccc([C@H](C)Nc2nc(O[C@@H]3CCCNC3)nc3c(C(C)C)cnn23)c1OC [(VII-aX), N-((S)-1-(2,3-dimethoxy-phenyl)ethyl)-8-isopropyl-2-((R)-piperidin-3-yloxy)pyrazolo[1,5-a][1,3,5]triazin-4-amine] | –
12 | 10 to 30 nM | +++ (IC50>2500 nM) | +++ (IC50>2500 nM) | Cc1ccccc1[C@H](C)Nc1nc(O[C@@H]2CCCNC2)nc2c(C(C)C)cnn12 [(VII-af), 8-isopropyl-2-((R)-piperidin-3-yloxy)-N-((S)-1-(o-tolyl)ethyl)pyrazolo[1,5-a][1,3,5]triazin-4-amine] | –
13 | 10 to 30 nM | +++ (IC50>2500 nM) | +++ (IC50>2500 nM) | CC(C)c1cnn2c(N[C@@H](C)c3ccccc3C(F)(F)F)nc(O[C@@H]3CCCNC3)nc12 [(VII-ah), 8-isopropyl-2-((R)-piperidin-3-yloxy)-N-((S)-1-(2-(trifluoromethyl)phenyl)ethyl)pyrazolo[1,5-a][1,3,5]triazin-4-amine] | –
14 | 30 to 100 nM | +++ (IC50>2500 nM) | +++ (IC50>2500 nM) | CC(C)c1cnn2c(N[C@@H](C)c3cccc(Cl)c3)nc(O[C@@H]3CCCNC3)nc12 [(VII-aj), N-((S)-1-(3-chlorophenyl)ethyl)-8-isopropyl-2-((R)-piperidin-3-yloxy)pyrazolo[1,5-a][1,3,5]triazin-4-amine] | –
15 | 30 to 100 nM | +++ (IC50>2500 nM) | +++ (IC50>2500 nM) | CC(C)c1cnn2c(N[C@@H](C)c3cccc(F)c3)nc(O[C@@H]3CCCNC3)nc12 [(VII-ak), N-((S)-1-(3-fluorophenyl)ethyl)-8-isopropyl-2-((R)-piperidin-3-yloxy)pyrazolo[1,5-a][1,3,5]triazin-4-amine] | –
16 | > 100 nM | +++ (IC50>2500 nM) | +++ (IC50>2500 nM) | CC(C)c1cnn2c(N[C@@H](C)c3ccc(Cl)cc3)nc(O[C@@H]3CCCNC3)nc12 [(VII-al), N-((S)-1-(4-chlorophenyl)ethyl)-8-isopropyl-2-((R)-piperidin-3-yloxy)pyrazolo[1,5-a][1,3,5]triazin-4-amine] | –
17 | 10 to 30 nM | +++ (IC50>2500 nM) | +++ (IC50>2500 nM) | CC(C)c1cnn2c(N[C@@H](C)c3cccc4ccccc34)nc(O[C@@H]3CCCNC3)nc12 [(VII-am), 8-isopropyl-N-((S)-1-(naphthalen-1-yl)ethyl)-2-((R)-piperidin-3-yloxy)pyrazolo[1,5-a][1,3,5]triazin-4-amine] | –
18 | > 100 nM | +++ (IC50>2500 nM) | +++ (IC50>2500 nM) | COc1ccc(C(C)Nc2nc(O[C@@H]3CCCNC3)nc3c(C(C)C)cnn23)cc1 (stereo partly drawn) [(VII-an), 8-isopropyl-N-(1-(4-methoxyphenyl)ethyl)-2-((R)-piperidin-3-yloxy)pyrazolo[1,5-a][1,3,5]triazin-4-amine] | –
19 | > 100 nM | +++ (IC50>2500 nM) | +++ (IC50>2500 nM) | CC(C)c1cnn2c(NC(C)c3ccccc3C3CC3)nc(O[C@@H]3CCCNC3)nc12 (stereo partly drawn) [(VII-ao), N-(1-(2-cyclopropyl-phenyl)ethyl)-8-isopropyl-2-((R)-piperidin-3-yloxy)pyrazolo[1,5-a][1,3,5]triazin-4-amine] | –
